Results reported in patent publication US20140309210A1, “INDAZOLE COMPOUNDS, COMPOSITIONS AND METHODS OF USE THEREOF” (Genentech, Inc., priority 2011, published 2014).

The compounds below were run against T1, purified ITK (Invitrogen PV3875) (Homo sapiens, UniProt Q08881) (assay: ITK peptide phosphorylation assay (Caliper LabChip or LCMS)). Settings: Table 1, Examples 141-279.
T1 construct: purchased Invitrogen PV3875
T1 sequence (Q08881 1-620): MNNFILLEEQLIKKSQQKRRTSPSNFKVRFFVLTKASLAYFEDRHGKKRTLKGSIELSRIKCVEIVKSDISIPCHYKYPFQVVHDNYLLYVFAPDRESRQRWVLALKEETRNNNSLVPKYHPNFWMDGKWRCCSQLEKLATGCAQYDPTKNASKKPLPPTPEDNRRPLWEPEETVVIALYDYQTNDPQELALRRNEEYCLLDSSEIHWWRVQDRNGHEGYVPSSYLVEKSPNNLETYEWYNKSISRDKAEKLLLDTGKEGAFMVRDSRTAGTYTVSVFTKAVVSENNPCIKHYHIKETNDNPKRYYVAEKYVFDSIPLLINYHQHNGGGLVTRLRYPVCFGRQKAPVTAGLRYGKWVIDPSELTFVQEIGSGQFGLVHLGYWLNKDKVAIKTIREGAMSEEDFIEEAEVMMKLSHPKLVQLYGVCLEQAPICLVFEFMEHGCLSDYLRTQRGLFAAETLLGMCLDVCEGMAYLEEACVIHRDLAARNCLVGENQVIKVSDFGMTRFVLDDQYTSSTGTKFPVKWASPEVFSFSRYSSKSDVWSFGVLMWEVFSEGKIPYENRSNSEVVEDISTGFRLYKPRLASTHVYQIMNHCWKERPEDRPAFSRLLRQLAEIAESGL
Type: biochemical
Procedure, shortened: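 Ki values come from Morrison quadratic fits of activity versus inhibitor concentration, adjusted for ATP-competitive inhibition against ATP/Km,app. Substrate and phosphopeptide from purified ITK reactions were resolved either microfluidically (Caliper, EDTA stop) or by LC-MS MRM (TCA stop).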
Compound `CCC(c1ccccc1)n1cc(NC(=O)c2n[nH]c3cc(-c4cncc(OC)c4)ccc23)cn1` (stereo not shown) [Example 211, 6-(5-methoxy-3-pyridyl)-N-[1-(1-phenylpropyl)py-razol-4-yl]-1H-indazole-3-carboxamide] has a Ki of 53.8 nM.
For `COc1cncc(-c2ccc3c(C(=O)Nc4cnn(C(CCN(C)C)c5ccccc5)c4)n[nH]c3c2)c1` (stereo not shown) [Example 212, N-[1-[3-(dimethylamino)-1-phenyl-propyl]pyrazol-4-yl]-6-(5-methoxy-3-pyridyl)-1H-indazole-3-carboxamide], the Ki was 1.64 nM.
In the case of `COc1cncc(-c2ccc3c(C(=O)Nc4cnn(C(CCN(C)C)c5ccccc5)c4)n[nH]c3c2)c1` (stereo not shown) [Example 213, N-[1-[3-(dimethylamino)-1-phenyl-propyl]pyrazol-4-yl]-6-(5-methoxy-3-pyridyl)-1H-indazole-3-carboxamide], the Ki is reported as 8.01 nM.
With `CCC(c1ccccc1)n1cc(NC(=O)c2n[nH]c3cc(-c4cncc(OC)c4)ccc23)cn1` (stereo not shown) [Example 214, 6-(5-methoxy-3-pyridyl)-N-[1-(1-phenylpropyl)py-razol-4-yl]-1H-indazole-3-carboxamide] the Ki was 7.17 nM.
`COc1cncc(-c2ccc3c(C(=O)Nc4cnn(Cc5cccnc5)c4)n[nH]c3c2)c1` [Example 215, 6-(5-methoxy-3-pyridyl)-N-[1-(3-pyridylmethyl)py-razol-4-yl]-1H-indazole-3-carboxamide] gave a Ki of 17.2 nM.
`O=C(Nc1cnn(Cc2cccnc2)c1)c1n[nH]c2cc(-c3cn[nH]c3)ccc12` [Example 216, 6-(1H-pyrazol-4-yl)-N-[1-(3-pyridylmethyl)py-razol-4-yl]-1H-indazole-3-carboxamide] showed a Ki of 1.12 nM.
With `CNc1cc(-c2ccc3c(C(=O)Nc4cnn(Cc5ccccc5)c4)n[nH]c3c2)ncn1` [Example 217, N-(1-benzylpyrazol-4-yl)-6-[6-(methylamino)py-rimidin-4-yl]-1H-indazole-3-carboxamide] the Ki was 404 nM.
With `O=C(Nc1cnn(Cc2ccncc2)c1)c1n[nH]c2cc(-c3cn[nH]c3)ccc12` [Example 218, 6-(1H-pyrazol-4-yl)-N-[1-(4-pyridylmethyl)py-razol-4-yl]-1H-indazole-3-carboxamide] the Ki was 3.19 nM.
`COc1cncc(-c2ccc3c(C(=O)Nc4cnn(Cc5ccncc5)c4)n[nH]c3c2)c1` [Example 219, 6-(5-methoxy-3-pyridyl)-N-[1-(4-pyridylmethyl)py-razol-4-yl]-1H-indazole-3-carboxamide] was tested, and the Ki was 23 nM.
`O=C(Nc1cnn(Cc2ccccn2)c1)c1n[nH]c2cc(-c3cn[nH]c3)ccc12` [Example 220, 6-(1H-pyrazol-4-yl)-N-[1-(2-pyridylmethyl)py-razol-4-yl]-1H-indazole-3-carboxamide] showed a Ki of 2.93 nM.
For `COc1cncc(-c2ccc3c(C(=O)Nc4cnn(Cc5ccccn5)c4)n[nH]c3c2)c1` [Example 221, 6-(5-methoxy-3-pyridyl)-N-[1-(2-pyridylmethyl)py-razol-4-yl]-1H-indazole-3-carboxamide], the Ki was 51.4 nM.
Work on `COc1cncc(-c2ccc3c(C(=O)Nc4cnn(CC5CCCCC5)c4)n[nH]c3c2)c1` [Example 222, N-[1-(cyclohexylmeth-yl)pyrazol-4-yl]-6-(5-methoxy-3-pyridyl)-1H-indazole-3-carboxamide] yielded a Ki of 75.3 nM.
Compound `COc1cncc(-c2ccc3c(C(=O)Nc4cnn(C(C)C)c4)n[nH]c3c2)c1` [Example 223, N-(1-isopropylpyrazol-4-yl)-6-(5-methoxy-3-pyridyl)-1H-indazole-3-carboxamide] has a Ki of 90 nM.
In the case of `N#Cc1cccc(Cn2cc(NC(=O)c3n[nH]c4cc(-c5cncc(Cl)c5)ccc34)cn2)c1` [Example 224, 6-(5-chloro-3-pyridyl)-N-[1-[(3-cyanophenyl)meth-yl]pyrazol-4-yl]-1H-indazole-3-carboxamide], the Ki is reported as 5.18 nM.
`O=C(Nc1cnn(Cc2cccnn2)c1)c1n[nH]c2cc(-c3cn[nH]c3)ccc12` [Example 225, 6-(1H-pyrazol-4-yl)-N-[1-(pyridazin-3-ylmethyl)pyrazol-4-yl]-1H-indazole-3-carboxamide] showed a Ki of 4.85 nM.
`O=C(Nc1cnn(Cc2cncnc2)c1)c1n[nH]c2cc(-c3cn[nH]c3)ccc12` [Example 226, 6-(1H-pyrazol-4-yl)-N-[1-(pyrimidin-5-ylmethyl)pyrazol-4-yl]-1H-indazole-3-carboxamide] was tested, and the Ki was 1.12 nM.
`O=C(Nc1cnn(Cc2cnc(N3CCOCC3)nc2)c1)c1n[nH]c2cc(-c3cn[nH]c3)ccc12` [Example 227, N-[1-[(2-morpholinopy-rimidin-5-yl)methyl]pyrazol-4-yl]6-(1H-pyrazol-4-yl)-1H-indazole-3-carboxamide] was tested, and the Ki was 2.36 nM.
`COCCN(C)CC(c1cccnc1)n1cc(NC(=O)c2n[nH]c3cc(-c4cncc(OC)c4)ccc23)cn1` (stereo not shown) [Example 228, N-[1-[2-[2-methoxyethyl(meth-yl)amino]-1-(3-pyridyl)ethyl]py-razol-4-yl]-6-(5-methoxy-3-pyridyl)-1H-indazole-3-carboxamide] was tested, and the Ki was 5.54 nM.
Compound `COCCN(C)CC(c1cccnc1)n1cc(NC(=O)c2n[nH]c3cc(-c4cncc(OC)c4)ccc23)cn1` (stereo not shown) [Example 229, N-[1-[2-[2-methoxyethyl(meth-yl)amino]-1-(3-pyridyl)ethyl]py-razol-4-yl]-6-(5-methoxy-3-pyridyl)-1H-indazole-3-carboxamide] has a Ki of 32.4 nM.
Compound `O=C(Nc1cnn(Cc2ccccc2)c1)c1n[nH]c2c(F)cccc12` [Example 230, N-(1-benzylpyrazol-4-yl)-7-fluoro-1H-indazole-3-carboxamide] has a Ki of 726 nM.
`CN1CCOc2cc(-c3ccc4c(C(=O)Nc5cnn(Cc6cccnc6)c5)n[nH]c4c3)cnc21` [Example 231, 6-(4-methyl-2,3-dihydropyrido[3,2-b][1,4]oxazin-7-yl)-N-[1-(3-pyridylmethyl)py-razol-4-yl]-1H-indazole-3-carboxamide] gave a Ki of 40.8 nM.
`COc1cncc(-c2ccc3c(C(=O)Nc4cnn(C(CN5CCN(C)CC5)c5cccnc5)c4)n[nH]c3c2)c1` (stereo not shown) [Example 232, 6-(5-methoxy-3-pyridyl)-N-[1-[2-(4-methylpiperazin-1-yl)-1-(3-pyridyl)ethyl]py-razol-4-yl]-1H-indazole-3-carboxamide] showed a Ki of 31.4 nM.
`COc1cncc(-c2ccc3c(C(=O)Nc4cnn(C(CN(C)C)c5cccnc5)c4)n[nH]c3c2)c1` (stereo not shown) [Example 233, N-[1-[2-(dimethylamino)-1-(3-pyridyl)ethyl]py-razol-4-yl]-6-(5-methoxy-3-pyridyl)-1H-indazole-3-carboxamide] showed a Ki of 51 nM.
`COc1cncc(-c2ccc3c(C(=O)Nc4cnn(C(CN5CCN(C)CC5)c5cccnc5)c4)n[nH]c3c2)c1` (stereo not shown) [Example 234, 6-(5-methoxy-3-pyridyl)-N-[1-[2-(4-methylpiperazin-1-yl)-1-(3-pyridyl)ethyl]py-razol-4-yl]-1H-indazole-3-carboxamide] gave a Ki of 5.38 nM.
`O=C(Nc1cnn(CC2CCOC2)c1)c1n[nH]c2cc(-c3cn[nH]c3)ccc12` (stereo not shown) [Example 235, 6-(1H-pyrazol-4-yl)-N-[1-(tetrahydrofuran-3-ylmethyl)pyrazol-4-yl]-1H-indazole-3-carboxamide] was tested, and the Ki was 4.64 nM.
`O=C(Nc1cnn(CC2CCC2)c1)c1n[nH]c2cc(-c3cn[nH]c3)ccc12` [Example 236, N-[1-(cyclobutylmeth-yl)pyrazol-4-yl]-6-(1H-pyrazol-4-yl)-1H-indazole-3-carboxamide] showed a Ki of 6.09 nM.
Compound `O=C(Nc1cnn(CC2COCCO2)c1)c1n[nH]c2cc(-c3cn[nH]c3)ccc12` (stereo not shown) [Example 237] has a Ki of 3.7 nM.
Work on `CCC(CC)Cn1cc(NC(=O)c2n[nH]c3cc(-c4cn[nH]c4)ccc23)cn1` [Example 238, N-[1-(2-ethylbutyl)pyrazol-4-yl]-6-(1H-pyrazol-4-yl)-1H-indazole-3-carboxamide] yielded a Ki of 2.79 nM.
In the case of `O=C(Nc1cnn(CC2CCCO2)c1)c1n[nH]c2cc(-c3cn[nH]c3)ccc12` (stereo not shown) [Example 239, 6-(1H-pyrazol-4-yl)-N-[1-(tetrahydrofuran-2-ylmethyl)pyrazol-4-yl]-1H-indazole-3-carboxamide], the Ki is reported as 6.58 nM.
Compound `O=C(Nc1cnn(CC2CC2)c1)c1n[nH]c2cc(-c3cn[nH]c3)ccc12` [Example 240, N-[1-(cyclopropylmeth-yl)pyrazol-4-yl]-6-(1H-pyrazol-4-yl)-1H-indazole-3-carboxamide] has a Ki of 5.33 nM.
Work on `O=C(Nc1cnn(CC2CCCOC2)c1)c1n[nH]c2cc(-c3cn[nH]c3)ccc12` (stereo not shown) [Example 241, 6-(1H-pyrazol-4-yl)-N-[1-(tetrahydropyran-3-ylmethyl)pyrazol-4-yl]-1H-indazole-3-carboxamide] yielded a Ki of 2.79 nM.
`O=C(Nc1cnn(CC2CCOCC2)c1)c1n[nH]c2cc(-c3cn[nH]c3)ccc12` [Example 242] showed a Ki of 2.47 nM.
`O=C(Nc1cnn(CC2CCCCC2)c1)c1n[nH]c2cc(-c3cn[nH]c3)ccc12` [Example 243, N-[1-(cyclohexylmeth-yl)pyrazol-4-yl]-6-(1H-pyrazol-4-yl)-1H-indazole-3-carboxamide] gave a Ki of 2.43 nM.
Work on `O=C(Nc1cnn(Cc2ccccc2)c1)c1n[nH]c2cc(-c3cn[nH]c3)cnc12` [Example 245, N-(1-benzylpyrazol-4-yl)-6-(1H-pyrazol-4-yl)-1H-pyrazolo[4,3-b]pyridine-3-carboxamide] yielded a Ki of 18.9 nM.
